Laboratory results as given in ChEMBL document CHEMBL5154864, “Design, synthesis and biological evaluation of novel nitric oxide donors with antioxidative activity” (Eur J Med Chem, 2022).
Activity calls are given as the source filed them. The calls are words filed in the database; no cut-off is given here.

Key:
HUVEC [1] = assay: Effect on intracellular NO production in HUVEC cells assessed as increase in NO level at 5 uM incubated for 24 hrs by inverted microscopic analysis; format: functional, cell-based; conditions: Homo sapiens
HUVEC [2] = assay: Cytotoxicity against HUVEC cells assessed as reduction in cell viability at 5 uM in absence of TBHP by CCK8 assay; format: toxicity, cell-based; conditions: human
HUVEC [3] = assay: Cytoprotective activity against TBHP induced oxidative stress in human HUVEC cells assessed as increase in cell viability at 5 uM by CCK8 assay; format: functional, cell-based
Thoracic aorta = assay: Vasodilation activity in C57BL/6 mouse thoracic aorta assessed as relaxation of phenylephrine-induced contractions at 5 to 50 uM; format: functional, tissue-based; conditions: dose 5-50 µM
HUVEC [4] = assay: Induction of oxidative stress in HUVEC cells assessed as increase in intracellular ROS level at 5 uM incubated for 24 hrs by DCHF staining based inverted microscopic analysis; format: functional, cell-based; conditions: Homo sapiens
Mus musculus [5] = assay: Antihypertensive activity against C57BL/6 mouse model of Ang II-induced hypertension assessed as reduction in vascular ROS level at 100 mg/kg/day, ip measured after 4 weeks; format: functional, organism-based
Mus musculus [6] = assay: Antihypertensive activity against C57BL/6 mouse model of Ang II-induced hypertension assessed as reduction in thoracic arterial wall thickness at 100 mg/kg/day, ip measured after 4 weeks; format: functional, organism-based
Mus musculus [7] = assay: Antihypertensive activity against C57BL/6 mouse model of Ang II-induced hypertension assessed as reduction in systolic blood pressure at 100 mg/kg/day, ip measured after 4 weeks; format: functional, organism-based; set-up: scale not given: the % may be the effect or the level left
Mus musculus [8] = assay: Antihypertensive activity against C57BL/6 mouse model of Ang II-induced hypertension assessed as reduction in diastolic blood pressure at 100 mg/kg/day, ip measured after 4 weeks; format: functional, organism-based; set-up: scale not given: the % may be the effect or the level left
Mus musculus [9] = assay: Reversal of Ang II infusion-induced endothelial dysfunction in C57BL/6 mouse model assessed as relaxation of ACh-stimulated vasodilation at 100 mg/kg/day, ip measured after 4 weeks; format: functional, organism-based
Mus musculus [10] = assay: Reversal of Ang II infusion-induced smooth muscle dysfunction in C57BL/6 mouse model assessed as relaxation of SNP-stimulated vasodilation at 100 mg/kg/day, ip measured after 4 weeks; format: functional, organism-based

Compound | Activity (HUVEC [1]) | Activity (HUVEC [3]) | also measured
CC1(C)N(O)C(c2ccc(C(=O)O)cc2)=[N+]([O-])C1(C)C | Active | – | Activity (HUVEC [2]): Non-Toxic
CC1(C)CC(O)CC(C)(C)N1[O] | Active | Active | –
O=[N+]([O-])O[C@@H]1CO[C@H]2[C@@H]1OC[C@@H]2O | Active | – | Activity (Thoracic aorta): Active; Activity (HUVEC [4]): Active
2-(2'-bromo-5'-hydroxylphenyl)-4,4,5,5-tetramethylimidazoline-1-oxyl-3-oxide | Active | – | –
2-(2'-bromo-6'-hydroxylphenyl)-4,4,5,5-tetramethylimidazoline-1-oxyl-3-oxide | Active | – | –
2-(2'-hydroxylphenyl)-4,4,5,5-tetramethyl-imidazoline-1-oxyl-3-oxide | Active | – | –
2-(2-hydroxynaphthalen-1-yl)-4,4,5,5-tetramethylimidazoline-1-oxyl-3-oxide | Active | – | –
2-(3'-bromo-4'-hydroxylphenyl)-4,4,5,5-tetramethylimidazoline-1-oxyl-3-oxide | Active | – | –
2-(4-hydroxy-3-methoxyphenyl)-4,4,5,5-tetramethylimidazoline-1-oxyl-3-oxide | Active | Active | –
(3S,6R)-6-(nitrooxy)hexahydrofuro[3,2-b]furan-3-yl 2-(2-(4,5-dihydro-4,4,5,5-tetramethyl-3-oxido-1H-imidazole-3-ium-1-oxyl-2-yl)phenoxy)acetate | Active | Active | –
(3S,6R)-6-(nitrooxy)hexahydrofuro[3,2-b]furan-3-yl 2-(2-bromo-4-(4,5-dihydro-4,4,5,5-tetramethyl-3-oxido-1H-imidazole-3-ium-1-oxyl-2-yl)phenoxy)acetate | Active | Active | –
(3S,6R)-6-(nitrooxy)hexahydrofuro[3,2-b]furan-3-yl 2-(4-bromo-3-(4,5-dihydro-4,4,5,5-tetramethyl-3-oxido-1H-imidazole-3-ium-1-oxyl-2-yl)phenoxy)acetate | Active | Active | Activity (Thoracic aorta): Active
(3S,6R)-6-(nitrooxy)hexahydrofuro[3,2-b]furan-3-yl 3-(4,5-dihydro-4,4,5,5-tetramethyl-3-oxido-1H-imidazole-3-ium-1-oxyl-2-yl)benzoate | Active | – | Activity (HUVEC [4]): Active
(3S,6R)-6-(nitrooxy)hexahydrofuro[3,2-b]furan-3-yl 4-(4,5-dihydro-4,4,5,5-tetramethyl-3-oxido-1H-imidazole-3-ium-1-oxyl-2-yl)benzoate | Active | – | Activity (HUVEC [4]): Active
(3S,6R)-6-(nitrooxy)hexahydrofuro[3,2-b]furan-3-yl (4-(4,5-dihydro-4,4,5,5-tetramethyl-3-oxido-1H-imidazole-3-ium-1-oxyl-2-yl)naphthalen-2-yl)benzoyl)-D-prolinate | Active | Active | Activity (Mus musculus [5]): Active; Activity (Mus musculus [6]): Active; Activity (Mus musculus [7]): 14.8%; Activity (Mus musculus [8]): 14.3%; Activity (Mus musculus [9]): Active; Activity (Thoracic aorta): Active; Activity (Mus musculus [10]): Active
(3S,6R)-6-(nitrooxy)hexahydrofuro[3,2-b]furan-3-yl (4-(4,5-dihydro-4,4,5,5-tetramethyl-3-oxido-1H-imidazole-3-ium-1-oxyl-2-yl)naphthalen-2-yl)benzoyl)-L-prolinate | Active | Active | Activity (HUVEC [4]): Active
